Test results as given in patent US20100267561A1, “HERBICIDAL PYRIDAZINONE DERIVATIVES” (priority 2007, published 2010).

Assays:
Test in all cases: Test E pre-/postemergence plant response
Assay type in all cases: in vivo
[1] = test system: dallisgrass (Paspalum dilatatum); conditions: scale 0 to 100
How it was run: (§1)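 Formulated in a non-phytotoxic solvent mixture containing surfactant, compound was applied to soil at planting or sprayed on emerged plants at the 1- to 4-leaf stage. Visual comparison with controls followed 14 to 21 days in the greenhouse; 0 = no effect, 100 = complete control.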

[2] = test system: purple nutsedge (Cyperus rotundus); conditions: scale 0 to 100
How it was run: as §1

[3] = test system: common chickweed (Stellaria media); conditions: 16 g ai/ha, Preemergence, scale 0 to 100
How it was run: as §1

[4] = test system: southern (S.) sandbur (Cenchrus echinatus); conditions: scale 0 to 100
How it was run: as §1

[5] = test system: goosegrass (Eleusine indica); conditions: scale 0 to 100
How it was run: as §1

[6] = test system: common purslane (Portulaca oleracea); conditions: scale 0 to 100
How it was run: as §1

[7] = test system: large crabgrass (Digitaria sanguinalis); conditions: scale 0 to 100
How it was run: as §1

[8] = test system: johnsongrass (Sorghum halepense); conditions: scale 0 to 100
How it was run: as §1

[9] = test system: green foxtail (Setaria viridis); conditions: scale 0 to 100
How it was run: as §1

[10] = test system: Italian ryegrass (Lolium multiflorum); conditions: scale 0 to 100
How it was run: as §1

[11] = test system: bermudagrass (Cynodon dactylon); conditions: scale 0 to 100
How it was run: as §1

[12] = test system: black mustard (Brassica nigra); conditions: scale 0 to 100
How it was run: as §1

Cc1cc(-c2ccc(Cl)cc2)nn1-c1c(OC(=O)C(C)C)cnn(C)c1=O [Compound 34]
Plant response rating, Dallisgrass ([1]; 16 g ai/ha, Preemergence): 50 | Plant response rating, Dallisgrass ([1]; 31 g ai/ha, Preemergence): 85 | Plant response rating, Dallisgrass ([1]; 62 g ai/ha, Preemergence): 85 | Plant response rating, Dallisgrass ([1]; Postemergence, 8 g ai/ha): 10 | Plant response rating, Dallisgrass ([1]; Postemergence, 16 g ai/ha): 20 | Plant response rating, Dallisgrass ([1]; Postemergence, 31 g ai/ha): 20 | Plant response rating, Dallisgrass ([1]; Postemergence, 62 g ai/ha): 70 | Plant response rating, Nutsedge, Purple ([2]; 16 g ai/ha, Preemergence): 0 | Plant response rating, Nutsedge, Purple ([2]; 31 g ai/ha, Preemergence): 20 | Plant response rating, Nutsedge, Purple ([2]; 62 g ai/ha, Preemergence): 35 | Plant response rating, Nutsedge, Purple ([2]; Postemergence, 8 g ai/ha): 0 | Plant response rating, Nutsedge, Purple ([2]; Postemergence, 16 g ai/ha): 0 | Plant response rating, Nutsedge, Purple ([2]; Postemergence, 31 g ai/ha): 0 | Plant response rating, Nutsedge, Purple ([2]; Postemergence, 62 g ai/ha): 0 | Plant response rating, Chickweed [3]: 0 | Plant response rating, Sandbur, S. ([4]; 16 g ai/ha, Preemergence): 75 | Plant response rating, Sandbur, S. ([4]; 31 g ai/ha, Preemergence): 90 | Plant response rating, Sandbur, S. ([4]; 62 g ai/ha, Preemergence): 100 | Plant response rating, Sandbur, S. ([4]; Postemergence, 8 g ai/ha): 75 | Plant response rating, Sandbur, S. ([4]; Postemergence, 16 g ai/ha): 75 | Plant response rating, Sandbur, S. ([4]; Postemergence, 31 g ai/ha): 90 | Plant response rating, Sandbur, S. ([4]; Postemergence, 62 g ai/ha): 100 | Plant response rating, Goosegrass ([5]; 16 g ai/ha, Preemergence): 65 | Plant response rating, Goosegrass ([5]; 31 g ai/ha, Preemergence): 95 | Plant response rating, Goosegrass ([5]; 62 g ai/ha, Preemergence): 100 | Plant response rating, Goosegrass ([5]; Postemergence, 8 g ai/ha): 0 | Plant response rating, Goosegrass ([5]; Postemergence, 16 g ai/ha): 20 | Plant response rating, Goosegrass ([5]; Postemergence, 31 g ai/ha): 80 | Plant response rating, Goosegrass ([5]; Postemergence, 62 g ai/ha): 80 | Plant response rating, Purslane ([6]; 16 g ai/ha, Preemergence): 0 | Plant response rating, Purslane ([6]; 31 g ai/ha, Preemergence): 0 | Plant response rating, Purslane ([6]; Postemergence, 8 g ai/ha): 0 | Plant response rating, Purslane ([6]; Postemergence, 16 g ai/ha): 0 | Plant response rating, Purslane ([6]; Postemergence, 31 g ai/ha): 0 | Plant response rating, Purslane ([6]; Postemergence, 62 g ai/ha): 0 | Plant response rating, Crabgrass, Large ([7]; 31 g ai/ha, Preemergence): 50 | Plant response rating, Crabgrass, Large ([7]; 62 g ai/ha, Preemergence): 100 | Plant response rating, Crabgrass, Large ([7]; Postemergence, 8 g ai/ha): 60 | Plant response rating, Crabgrass, Large ([7]; Postemergence, 16 g ai/ha): 75 | Plant response rating, Crabgrass, Large ([7]; Postemergence, 31 g ai/ha): 100 | Plant response rating, Crabgrass, Large ([7]; Postemergence, 62 g ai/ha): 100 | Plant response rating, Johnsongrass ([8]; 16 g ai/ha, Preemergence): 50 | Plant response rating, Johnsongrass ([8]; 31 g ai/ha, Preemergence): 90 | Plant response rating, Johnsongrass ([8]; 62 g ai/ha, Preemergence): 90 | Plant response rating, Johnsongrass ([8]; Postemergence, 8 g ai/ha): 10 | Plant response rating, Johnsongrass ([8]; Postemergence, 16 g ai/ha): 80 | Plant response rating, Johnsongrass ([8]; Postemergence, 31 g ai/ha): 98 | Plant response rating, Johnsongrass ([8]; Postemergence, 62 g ai/ha): 100 | Plant response rating, Foxtail, Green ([9]; 16 g ai/ha, Preemergence): 65 | Plant response rating, Foxtail, Green ([9]; 31 g ai/ha, Preemergence): 75 | Plant response rating, Foxtail, Green ([9]; 62 g ai/ha, Preemergence): 100 | Plant response rating, Foxtail, Green ([9]; Postemergence, 8 g ai/ha): 50 | Plant response rating, Foxtail, Green ([9]; Postemergence, 16 g ai/ha): 75 | Plant response rating, Foxtail, Green ([9]; Postemergence, 31 g ai/ha): 95 | Plant response rating, Foxtail, Green ([9]; Postemergence, 62 g ai/ha): 98 | Plant response rating, Ryegrass, Italian ([10]; 16 g ai/ha, Preemergence): 80 | Plant response rating, Ryegrass, Italian ([10]; 31 g ai/ha, Preemergence): 100 | Plant response rating, Ryegrass, Italian ([10]; 62 g ai/ha, Preemergence): 100 | Plant response rating, Ryegrass, Italian ([10]; Postemergence, 8 g ai/ha): 60 | Plant response rating, Ryegrass, Italian ([10]; Postemergence, 16 g ai/ha): 95 | Plant response rating, Ryegrass, Italian ([10]; Postemergence, 31 g ai/ha): 100 | Plant response rating, Ryegrass, Italian ([10]; Postemergence, 62 g ai/ha): 100 | Plant response rating, Bermudagrass ([11]; 16 g ai/ha, Preemergence): 40 | Plant response rating, Bermudagrass ([11]; 31 g ai/ha, Preemergence): 90 | Plant response rating, Bermudagrass ([11]; 62 g ai/ha, Preemergence): 100 | Plant response rating, Bermudagrass ([11]; Postemergence, 8 g ai/ha): 20 | Plant response rating, Bermudagrass ([11]; Postemergence, 16 g ai/ha): 50 | Plant response rating, Bermudagrass ([11]; Postemergence, 31 g ai/ha): 80 | Plant response rating, Bermudagrass ([11]; Postemergence, 62 g ai/ha): 95 | Plant response rating, Mustard, Black ([12]; 16 g ai/ha, Preemergence): 0 | Plant response rating, Mustard, Black ([12]; 31 g ai/ha, Preemergence): 0 | Plant response rating, Mustard, Black ([12]; 62 g ai/ha, Preemergence): 0 | Plant response rating, Mustard, Black ([12]; Postemergence, 8 g ai/ha): 0 | Plant response rating, Mustard, Black ([12]; Postemergence, 16 g ai/ha): 0 | Plant response rating, Mustard, Black ([12]; Postemergence, 31 g ai/ha): 0 | Plant response rating, Mustard, Black ([12]; Postemergence, 62 g ai/ha): 0
